Usually IC50 stands for the concentration that inhibits the measured activity by half. As usually defined, the half-life is the time needed for the level to fall by half in the phase considered. As usually defined, the Cmax is the highest concentration seen after dosing. Usually Tmax stands for the time from dosing to the highest level. A word on the clearance: it is the volume of plasma or blood freed of the substance per unit of time. Usually EC50 stands for the concentration giving half of the maximal effect. A high value points to a less potent agent.

Data set [1] has as its target Human-CD73 enzyme (Homo sapiens (Human), UniProt P21589). The experiment in a line: In vitro inhibitory activity to recombinant human CD73 enzyme (ATP-GLO). In kind it is biochemical. The settings on record: Human-CD73 0.1 μg/mL, AMP 100 μM. The procedure: Human-CD73 (Novoprotein; C446) was diluted with Tris-MgCl2 buffer to form a stock solution (3×), which was placed in a 96-well plate according to 20 μL/well to obtain a final concentration of 0.1 μg/mL. The compound was diluted with Tris-MgCl2 buffer to form a stock solution (3×) of an appropriate concentration gradient, the compound solution was added to the above 96-well plate according to 20 μL/well and uniformly mixed with the Human-CD73 solution, and the mixture was incubated at the room temperature for 30 min. Meanwhile, a positive reference group (without the compound) and a negative reference group (without CD73) were set. AMP (Sigma; A1752-5G) was diluted with Tris-MgCl2 buffer to form a stock solution (3×), which was added to the above 96-well plate according to 20 μL/well to obtain a final concentration of 100 μM, and the mixture was uniformly mixed and incubated at 37° C. for 60 min; ATP (Sigma; A7699-1G) was diluted with Tris-MgCl2 buffer to form a stock solution (7×), which was added to the above 96-well plate according to 10 μL/well to obtain a final concentration of 100 μM, and the mixture was uniformly mixed, incubated for 5 min, and tested by using an ATP-GLO kit (Promega; G7573).
Human-CD73 inhibition rates of the compound at different concentrations were calculated according to the following formula, the concentration of the compound was taken as the X-axis, the inhibition rate was taken as the Y-axis, and an IC50 value of the compound in inhibiting Human-CD73 was calculated by using Prism software.

Data set [2] addresses CD73 bound to the surfaces of A375 cells (Homo sapiens (Human), UniProt P21589). The data set is described as follows: Inhibitory activity to CD73 enzyme bound to the surfaces of human melanoma A375 cells. Format: cell-based. The settings on record: AMP 200 μM, 16 h. The procedure: The compound was diluted with serum-free DMEM to form a stock solution (5×) of an appropriate concentration gradient, the compound solution was added to the cells in the above 96-well plate according to 20 μL/well, and the mixture was placed in an incubator and pre-incubated for 30 min.
A375-bound CD73 inhibition rates of the compound at different concentrations were calculated according to the following formula, the concentration of the compound was taken as the X-axis, the inhibition rate was taken as the Y-axis, and an IC50 value of the compound in inhibiting A375-bound CD73 was calculated by using Prism software.

Data set [3] in a line: Pharmacokinetic test on mice. In kind it is in vivo, male ICR mice. The conditions noted are these: for half-life / AUC(0-t) / Cmax / Tmax / clearance / Vd: male, ICR, plasma, mouse; for AUC(0-t): read-out: AUC0-t; for Cmax: read-out: Cmax; for Tmax: read-out: Tmax; for Vd: read-out: Vz. As to the method: (§1) In a pharmacokinetic test on mice, male ICR mice of 20 g to 25 g were used and fasted overnight. 3 mice were selected for orally intragastric administration (10 mg/kg). Before administration, and 15 min, 30 min, 1 h, 2 h, 4 h, 8 h, and 24 h after administration, blood was sampled from each mouse. Another 3 mice were selected for intravenous injection administration (3 mg/kg), and before administration, and 15 min, 30 min, 1 h, 2 h, 4 h, 8 h, and 24 h after administration, blood was sampled from each mouse. The blood sample was centrifuged at 6,800 g and 2 to 8° C. for 6 min, and plasma was collected and stored at −80° C. The plasma of each time point was vortex-mixed for 1 min with an acetonitrile solution containing the internal standard with a volume 3-5 times that of the plasma of each time point, and centrifuged at 13,000 rpm and 4° C. for 10 min, a supernatant was collected and mixed with water with a volume 3 times that of the supernatant, and an appropriate amount of the mixed solution was used for LC-MS/MS analysis. The main pharmacokinetic parameters were analyzed by using a WinNonlin 7.0 non-compartmental model.

Data set [4] is described as follows: Pharmacokinetic test on dogs. Format: in vivo, male Beagle dogs. The procedure:
as §1
In a pharmacokinetic test on dogs, male Beagle dogs of 8 to 10 kg were used and fasted overnight. 3 Beagle dogs were selected for orally intragastric administration (5 mg/kg). Another 3 Beagle dogs were selected for intravenous injection administration (1 mg/kg). Other operations were the same as the pharmacokinetic test on mice.

Data set [5] has as its system Human CD4+ T cells. The experiment in a line: Relieving AMP-induced proliferation inhibition of human CD4+ T cells (CCK8). The conditions noted are these: Homo sapiens, 120 h, AMP 0.3 mM, day 5. Format: cell-based. As to the method: On day 1 of the experiment, CD4^+ T cells (Allcells Shanghai, PB009-2F-C) were thawed, and inoculated into two replicate wells according to 3×10^4 cells/well and 50 μL/well. The compound was diluted with a complete medium to form a stock solution (4×) of an appropriate concentration gradient, the compound solution was added to the above cells according to 50 μL/well, and the mixture was pre-incubated at 37° C. for 30 min. […] Meanwhile, a positive reference group (Human CD4^+ T+IL-2+CD3/CD28 beads) and a negative reference group (Human CD4^+ T+IL-2+CD3/CD28 beads+AMP) were set. AMP (Sigma; A1752-5G) was diluted with a complete medium to form an AMP solution (4×), the AMP solution was added to the above cells according to 50 μL/well, the final concentration was 0.3 mM, and the mixture was incubated at 37° C. On day 3 of the experiment, the AMP solution was added to the above plate according to 20 μL/well, and the final concentration was 0.3 mM. On day 5, the proliferation of the cells was detected by using a CCK8 kit (DojinDO; CK04).
Inhibition rates of the compound at different concentrations in relieving AMP-induced proliferation inhibition of CD4^+ T cells were calculated according to the following formula, the concentration of the compound was taken as the X-axis, the inhibition rate was taken as the Y-axis, and an EC50 value of the compound in relieving the AMP-induced proliferation inhibition of CD4^+ T cells was calculated by using Prism software.

Where [6] appears, read: po, orally intragastric 10 mg/kg.
The mark [7] stands for this setting: male, Beagle, plasma, po, dog, orally intragastric 5 mg/kg.
Setting [8] is: male, Beagle, plasma, dog, intravenous injection 1 mg/kg.

Human-CD73 enzyme, sequence (P21589 27-574): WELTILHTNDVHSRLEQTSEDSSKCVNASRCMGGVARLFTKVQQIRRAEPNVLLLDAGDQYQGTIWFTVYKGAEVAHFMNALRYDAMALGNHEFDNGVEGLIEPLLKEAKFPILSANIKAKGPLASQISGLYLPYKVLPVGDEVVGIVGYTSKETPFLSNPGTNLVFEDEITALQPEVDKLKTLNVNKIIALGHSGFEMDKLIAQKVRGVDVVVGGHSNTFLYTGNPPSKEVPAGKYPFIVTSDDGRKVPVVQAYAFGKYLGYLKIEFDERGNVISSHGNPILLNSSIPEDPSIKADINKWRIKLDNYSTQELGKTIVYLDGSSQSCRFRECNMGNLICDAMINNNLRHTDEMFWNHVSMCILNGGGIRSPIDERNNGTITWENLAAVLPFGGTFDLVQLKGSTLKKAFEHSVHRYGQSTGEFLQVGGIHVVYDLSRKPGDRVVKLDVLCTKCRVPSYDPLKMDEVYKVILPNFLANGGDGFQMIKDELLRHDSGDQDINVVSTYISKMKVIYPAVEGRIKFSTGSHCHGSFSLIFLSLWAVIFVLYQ
CD73 bound to the surfaces of A375 cells, sequence (P21589 27-574): as above

Turning to `COC[C@H]1C[C@@H]1c1cc(-c2c[nH]c(=O)[nH]c2=O)nnc1Cl` [Compound 12, 5-(6-chloro-5-((1S,2S)-2-(methoxymethyl)cyclopropyl)pyridazin-3-yl)pyrimidine-2,4(1H,3H)-dione], the IC50 in data set [1] came out at 15.4 nM.

Turning to `CC(O)[C@H]1C[C@@H]1c1cc(-c2c[nH]c(=O)[nH]c2=O)nnc1Cl` (stereo partly drawn) [Compound 6, 5-(6-chloro-5-((1S,2S)-2-(1-hydroxyethyl)cyclopropyl)pyridazin-3-yl)pyrimidine-2,4(1H,3H)-dione], the IC50 in data set [1] is 24.5 nM.

On to `N#Cc1nnc(-c2c[nH]c(=O)[nH]c2=O)cc1[C@H]1C[C@@H]1C(F)(F)F` [Compound 15, 6-(2,4-dioxo-1H-pyrimidin-5-yl)-4-((1S,2S)-2-(trifluoromethyl)cyclopropyl)pyridazine-3-carbonitrile], for which the IC50 in data set [1] came out at 123 nM.

Consider `O=c1[nH]cc(-c2cc([C@@H]3C[C@H]3CF)c(Cl)nn2)c(=O)[nH]1` [Compound 8, 5-(6-chloro-5-((1R,2R)-2-(fluoromethyl)cyclopropyl)pyridazin-3-yl)pyrimidine-2,4(1H,3H)-dione], for which, in data set [1], the IC50 stood at 16.5 nM.

Regarding `Cc1nnc(-c2c[nH]c(=O)[nH]c2=O)cc1[C@H]1C[C@@H]1C(F)F` [Reference compound 1, 5-(5-((1S,2S)-2-(difluoromethyl)cyclopropyl)-6-methylpyridazin-3-yl)pyrimidine-2,4(1H,3H)-dione, reference compound], the IC50 in data set [1] worked out at 12.5 nM. The molecule further displayed an IC50 in data set [2] of 247 nM. In data set [3] (setting [6]), the half-life was 1.17 h, the AUC(0-t) was 821 ng·h/mL, the Cmax is 1150 ng/mL and the Tmax was 0.25 h. Further, in data set [3] (intravenous injection 3 mg/kg), the clearance is 85.2 mL/min/kg, the half-life was 1.99 h, the AUC(0-t) was 585 ng·h/mL and the Vd amounted to 14.7 L/kg.

For the molecule `O=c1[nH]cc(-c2cc([C@H]3C[C@@H]3COC(F)(F)F)c(Cl)nn2)c(=O)[nH]1` [Compound 11, 5-(6-chloro-5-((1S,2S)-2-((trifluoromethoxy)methyl)cyclopropyl)pyridazin-3-yl)pyrimidine-2,4(1H,3H)-dione], in data set [4] (dogs), the “exposure compared to the reference compounds” value is reported as “much higher”. Moreover, in data set [4] (setting [7]), the AUC(0-t) came to 16600 ng·h/mL, the Cmax amounted to 5710 ng/mL, the Tmax was 0.83 h and the half-life is 2.27 h. Besides, in data set [4] (setting [8]), the AUC(0-t) stood at 2100 ng·h/mL, the clearance was 8.83 mL/min/kg and the half-life was 0.89 h. The Vd in data set [4] (male, Beagle, plasma, dog, intravenous injection 1 mg/kg, read-out: Vz) amounted to 0.66 L/kg. Also, the EC50 in data set [5] turned out to be 169 nM. Further, in data set [3] (setting [6]), the half-life was 3.06 h, the AUC(0-t) was determined as 36200 ng·h/mL, the Cmax was 5530 ng/mL and the Tmax stood at 0.67 h. Besides, in data set [3] (intravenous injection 3 mg/kg), the clearance was 7.83 mL/min/kg, the half-life was 3.72 h, the AUC(0-t) was found to be 6950 ng·h/mL and the Vd came to 2.57 L/kg. Moreover, the “pharmacokinetic properties compared to the reference compounds” value in data set [3] (mice) is recorded as “significantly improved”.

In the case of `O=c1[nH]cc(-c2cc([C@H]3C[C@@H]3CC(F)F)c(Cl)nn2)c(=O)[nH]1` [Compound 18, 5-(6-chloro-5-((1S,2R)-2-(2,2-difluoroethyl)cyclopropyl)pyridazin-3-yl)pyrimidine-2,4(1H,3H)-dione], inhibition in data set [2] was half-maximal at 17.6 nM (IC50). Besides, in data set [3] (setting [6]), the half-life is 1.43 h, the AUC(0-t) was found to be 9800 ng·h/mL, the Cmax was 4410 ng/mL and the Tmax worked out at 0.42 h. Also, in data set [3] (intravenous injection 3 mg/kg), the clearance was 10.3 mL/min/kg, the half-life is 1.82 h, the AUC(0-t) turned out to be 5070 ng·h/mL and the Vd is 1.5 L/kg.

As to `CC(C)(O)[C@H]1C[C@@H]1c1cc(-c2c[nH]c(=O)[nH]c2=O)nnc1Cl` [Compound 5, 5-(6-chloro-5-((1S,2S)-2-(2-hydroxypropan-2-yl)cyclopropyl)pyridazin-3-yl)pyrimidine-2,4(1H,3H)-dione], the IC50 in data set [1] amounted to 11.6 nM.

On to `O=c1[nH]cc(-c2cc([C@@H]3C[C@H]3CC(F)(F)F)c(Cl)nn2)c(=O)[nH]1` [Compound 13, 5-(6-chloro-5-((1R,2S)-2-(2,2,2-trifluoroethyl)cyclopropyl)pyridazin-3-yl)pyrimidine-2,4(1H,3H)-dione], for which the IC50 in data set [1] amounted to 6870 nM.

Regarding `Cc1nnc(-c2c[nH]c(=O)[nH]c2=O)cc1[C@H]1C[C@@H]1C(F)(F)F` [Compound 7, 5-(6-methyl-5-((1S,2S)-2-(trifluoromethyl)cyclopropyl)pyridazin-3-yl)pyrimidine-2,4(1H,3H)-dione], the concentration for half-maximal inhibition (IC50) in data set [1] was determined as 32.1 nM; in data set [2] it was 54.9 nM.

Regarding `CC(C)OC[C@H]1C[C@@H]1c1cc(-c2c[nH]c(=O)[nH]c2=O)nnc1Cl` [Compound 17, 5-(6-chloro-5-((1S,2S)-2-(isopropoxymethyl)cyclopropyl)pyridazin-3-yl)-1H-pyrimidine-2,4-dione], the IC50 in data set [1] was found to be 164 nM.

Turning to `CCOC[C@H]1C[C@@H]1c1cc(-c2c[nH]c(=O)[nH]c2=O)nnc1Cl` [Compound 16, 5-(6-chloro-5-((1S,2S)-2-(ethoxymethyl)cyclopropyl)pyridazin-3-yl)-1H-pyrimidine-2,4-dione], the IC50 in data set [1] was determined as 173 nM.

As for `O=c1[nH]cc(-c2cc([C@@H]3C[C@H]3CC(F)F)c(Cl)nn2)c(=O)[nH]1` [Compound 19, 5-(6-chloro-5-((1R,2S)-2-(2,2-difluoroethyl)cyclopropyl)pyridazin-3-yl)pyrimidine-2,4(1H,3H)-dione], the IC50 in data set [1] amounted to 1250 nM.

For the molecule `Cc1nnc(-c2c[nH]c(=O)[nH]c2=O)cc1[C@H]1C[C@@H]1CF` [Compound 20, 5-(5-((1S,2S)-2-(fluoromethyl)cyclopropyl)-6-methylpyridazin-3-yl)pyrimidine-2,4(1H,3H)-dione], in data set [1], the IC50 came to 9.55 nM.

These data come from patent US20230399314A1, “CD73 INHIBITOR AND USE THEREOF” (WUHAN HUMANWELL INNOVATIVE DRUG RESEARCH AND DEVELOPMENT …, priority 2020, published 2023).
